The record followed here is ChEMBL document CHEMBL5036304, “One Atom Makes All the Difference: Getting a Foot in the Door between SOS1 and KRAS” (J Med Chem, 2021).

Active and inactive are the calls of the source. The calls are words filed in the database; no cut-off is given here.

Data set [1] deals with T1, Son of sevenless homolog 1 (Homo sapiens, UniProt Q07889).
T1 sequence (Q07889 whole entry): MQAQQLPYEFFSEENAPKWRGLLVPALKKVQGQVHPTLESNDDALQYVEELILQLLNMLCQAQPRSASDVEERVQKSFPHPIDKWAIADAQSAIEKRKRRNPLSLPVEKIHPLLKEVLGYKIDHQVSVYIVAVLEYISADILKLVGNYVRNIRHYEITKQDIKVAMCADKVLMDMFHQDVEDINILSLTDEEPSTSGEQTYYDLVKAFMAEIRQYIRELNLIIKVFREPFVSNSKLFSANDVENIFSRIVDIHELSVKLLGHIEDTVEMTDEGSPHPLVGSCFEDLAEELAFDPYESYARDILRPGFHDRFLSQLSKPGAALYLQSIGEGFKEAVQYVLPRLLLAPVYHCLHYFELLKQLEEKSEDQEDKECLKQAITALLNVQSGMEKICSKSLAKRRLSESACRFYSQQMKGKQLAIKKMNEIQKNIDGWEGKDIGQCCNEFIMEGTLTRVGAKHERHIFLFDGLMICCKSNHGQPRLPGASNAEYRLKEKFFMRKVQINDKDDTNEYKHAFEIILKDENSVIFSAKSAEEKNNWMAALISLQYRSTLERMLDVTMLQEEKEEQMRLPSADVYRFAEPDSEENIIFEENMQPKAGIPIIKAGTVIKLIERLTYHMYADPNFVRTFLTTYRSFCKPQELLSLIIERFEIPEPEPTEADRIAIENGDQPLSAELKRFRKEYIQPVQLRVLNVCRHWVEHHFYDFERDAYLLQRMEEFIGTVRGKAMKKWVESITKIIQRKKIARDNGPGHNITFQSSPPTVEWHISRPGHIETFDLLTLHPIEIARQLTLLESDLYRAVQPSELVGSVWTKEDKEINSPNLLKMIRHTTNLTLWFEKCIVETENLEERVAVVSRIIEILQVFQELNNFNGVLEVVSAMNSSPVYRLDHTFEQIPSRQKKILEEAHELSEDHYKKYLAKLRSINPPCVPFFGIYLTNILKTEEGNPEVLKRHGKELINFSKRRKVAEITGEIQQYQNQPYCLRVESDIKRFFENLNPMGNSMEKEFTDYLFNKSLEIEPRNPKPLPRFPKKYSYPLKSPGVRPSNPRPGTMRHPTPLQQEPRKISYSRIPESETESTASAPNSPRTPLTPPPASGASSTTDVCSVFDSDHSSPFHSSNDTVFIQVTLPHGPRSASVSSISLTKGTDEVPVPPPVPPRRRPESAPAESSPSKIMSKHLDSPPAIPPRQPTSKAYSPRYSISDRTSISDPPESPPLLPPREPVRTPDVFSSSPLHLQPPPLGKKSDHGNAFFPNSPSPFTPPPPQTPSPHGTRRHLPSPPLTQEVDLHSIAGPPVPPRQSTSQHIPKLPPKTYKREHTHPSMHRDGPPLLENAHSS
Nature of the data set: Binding affinity to SOS1 (unknown origin) assessed as dissociation constant by SPR analysis. Background: In SPR one partner is held on a chip, and binding of the other changes the refractive index at the surface.

The target of data set [2] is T2, SOS1-KRAS (Homo sapiens, UniProt Q07889). Description: Inhibition of SOS1/KRAS G12D mutant (unknown origin) protein-protein interaction using GDP nucleotide as substrate measured after 30 mins by Alphascreen assay.
Data set [3] addresses Epidermal growth factor receptor (Homo sapiens, UniProt P00533). Description: Inhibition of EGFR (unknown origin).
A short description of data set [4]: Efflux ratio of apparent permeability from basolateral to apical side over apical to basolateral side in human Caco-2 cells at 10 uM. Background: Caco-2 monolayers are a common model of the intestinal barrier.
Data set [5] has as its system DLD-1. Nature of the data set: Induction of apoptosis in human DLD-1 cells harboring KRAS G13D mutant assessed as cleaved-PRAP at 100 nM measured after 24 to 48 hrs. The format is functional, cell-based. The conditions noted are these: time 24-48 hrs.
Data set [6] is described as follows: Anticancer activity against human DLD-1 cells xenografted rat model assessed as tumor growth inhibition at 50 mg/kg measured. The conditions noted are these: read-out: TGI. The format is functional.
In data set [7] the test system is DLD-1. Description: Induction of apoptosis in human DLD-1 cells harboring KRAS G13D mutant assessed as cleaved-PRAP at 0.1 nM measured after 24 to 48 hrs. The format is functional, cell-based. The conditions noted are these: time 24-48 hrs.
Data set [8] can be described thus: Metabolic stability in rat hepatocytes in presence of 50% serum. The format is ADME, cell-based, Hepatocyte.
Data set [9] deals with DLD-1. Description: Induction of apoptosis in human DLD-1 cells harboring KRAS G13D mutant assessed as cleaved-PRAP measured after 24 to 48 hrs. The format is functional, cell-based. The conditions noted are these: time 24-48 hrs.
Data set [10] is described as follows: Oral bioavailability in mouse. The conditions noted are these: in vivo. The format is ADME, organism-based.
Data set [11] is described as follows: Oral bioavailability in rat. The format is ADME, organism-based. The conditions noted are these: in vivo.
Data set [12] can be described thus: Metabolic stability in human hepatocytes in presence of 50% serum. The format is ADME, cell-based, Hepatocyte.
Data set [13] is described as follows: Metabolic stability in mouse hepatocytes in presence of 50% serum. The format is ADME, cell-based, Hepatocyte.
Data set [14] has as its target T2, SOS1-KRAS. Nature of the data set: Activation of SOS1/KRAS G12D mutant (unknown origin) protein-protein interaction using GDP nucleotide as substrate measured after 30 mins by Alphascreen assay. A general note: In Alpha technology, singlet oxygen from a donor bead excites a nearby acceptor bead.

The term Kd denotes a measure of binding affinity in units of concentration. As a reminder, the IC50 is the midpoint of a concentration-inhibition curve. A high value points to a need for much substance. By efflux ratio is commonly meant a quotient of directional permeabilities that is used to spot active efflux. The bioavailability is dose-corrected exposure relative to a reference, in per cent. Low values mean poor availability, high ones good availability. Usually EC50 stands for the concentration giving half of the maximal effect.

Chain of Epidermal growth factor receptor (P00533 whole entry): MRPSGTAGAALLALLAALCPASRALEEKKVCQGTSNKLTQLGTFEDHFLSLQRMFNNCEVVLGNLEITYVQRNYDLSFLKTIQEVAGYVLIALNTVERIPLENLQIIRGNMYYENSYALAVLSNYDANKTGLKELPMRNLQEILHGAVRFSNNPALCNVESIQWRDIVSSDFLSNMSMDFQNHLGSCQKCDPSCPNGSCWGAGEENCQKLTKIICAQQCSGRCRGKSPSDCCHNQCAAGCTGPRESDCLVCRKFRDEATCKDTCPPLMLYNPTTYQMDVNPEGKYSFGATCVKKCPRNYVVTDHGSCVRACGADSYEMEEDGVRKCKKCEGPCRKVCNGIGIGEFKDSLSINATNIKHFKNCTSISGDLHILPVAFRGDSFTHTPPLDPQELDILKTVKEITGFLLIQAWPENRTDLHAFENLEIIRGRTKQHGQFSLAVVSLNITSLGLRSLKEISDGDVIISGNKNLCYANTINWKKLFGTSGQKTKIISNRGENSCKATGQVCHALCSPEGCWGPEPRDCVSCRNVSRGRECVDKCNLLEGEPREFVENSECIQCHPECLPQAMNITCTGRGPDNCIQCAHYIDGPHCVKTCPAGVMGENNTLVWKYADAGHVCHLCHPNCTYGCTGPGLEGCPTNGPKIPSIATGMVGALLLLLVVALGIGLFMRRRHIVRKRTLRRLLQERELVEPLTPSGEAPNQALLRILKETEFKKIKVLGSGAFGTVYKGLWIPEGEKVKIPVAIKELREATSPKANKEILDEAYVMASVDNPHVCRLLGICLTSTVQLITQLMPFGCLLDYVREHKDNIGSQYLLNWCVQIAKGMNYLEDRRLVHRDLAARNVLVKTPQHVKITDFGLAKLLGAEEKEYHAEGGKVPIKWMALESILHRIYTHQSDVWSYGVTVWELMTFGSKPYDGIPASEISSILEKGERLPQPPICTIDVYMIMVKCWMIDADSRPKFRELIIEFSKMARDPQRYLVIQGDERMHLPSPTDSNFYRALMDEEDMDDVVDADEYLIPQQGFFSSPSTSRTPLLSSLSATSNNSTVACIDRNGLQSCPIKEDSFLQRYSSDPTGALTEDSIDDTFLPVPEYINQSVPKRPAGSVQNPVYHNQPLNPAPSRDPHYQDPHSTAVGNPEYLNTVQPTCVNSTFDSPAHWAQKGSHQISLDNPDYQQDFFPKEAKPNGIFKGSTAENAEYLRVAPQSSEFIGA

For `COc1cc2nc(C)nc(N[C@H](C)c3cccc(C(F)(F)F)c3)c2cc1OC`, the Kd in [1] turned out to be 104 nM. The IC50 was 106 nM at SOS1-KRAS [2] and above 20000 nM in [3]. In addition, in data set [4], the efflux ratio at 10 µM was determined as 0.3.

With `CN(C)C/C=C/C(=O)Nc1cc2c(Nc3ccc(F)c(Cl)c3)ncnc2cc1O[C@H]1CCOC1` [AFATINIB], the outcome in the data set with DLD-1 [5] was Active. For the same compound, the inhibition in vivo at 50 mg/kg in data set [6] was 7%.

Turning to `COc1cc2nc(C)nc(N[C@H](C)c3cc(N)cc(C(F)(F)F)c3)c2cc1OC`, the Kd in data set [1] was determined as 16 nM. This compound also had an IC50 against SOS1-KRAS [2] of 15 nM. The efflux ratio at 10 µM in data set [4] came out at 0.7.

On to `COc1cc2ncnc(N[C@H](C)c3ccccc3)c2cc1OC`, for which the Kd in data set [1] came out at 301 nM. Besides, the IC50 at SOS1-KRAS [2] turned out to be 1050 nM; in data set [3], 1 nM.

As for `CC(=O)Nc1cccc(-n2c(=O)n(C3CC3)c(=O)c3c(Nc4ccc(I)cc4F)n(C)c(=O)c(C)c32)c1`, in the data set with DLD-1 [7], the result was Active.

For the compound `COc1cc2nc(C)nc(N[C@H](C)c3cc(N)cc(C(F)(F)F)c3)c2cc1O[C@H]1CCOC1`, the Stability in [8] is 28%; in data set [12], 14%; in [13] it was 45%. Moreover, the outcome in the data set with DLD-1 [9] was Active. The bioavailability in [10] and in [11] was 100% in each case. Moreover, in data set [6], the inhibition in vivo at 50 mg/kg was determined as 37%.

In the case of `N[C@@H](Cc1c[nH]c2ccccc12)C(=O)NC1CCN(Cc2c[nH]c3ccccc23)CC1`, the EC50 on SOS1-KRAS [14] is 11100 nM. Moreover, in [1], the Kd worked out at 19300 nM.

`Cc1nc(N[C@H](C)c2cc(N)cc(C(F)(F)F)c2)c2cc(F)ccc2n1` returned an EC50 on SOS1-KRAS [14] of 939 nM. Besides, the Kd in data set [1] came out at 751 nM.

Consider `CC(C)c1noc2ncc(C(=O)NC(C)c3cccc(S(N)(=O)=O)c3)cc12` (stereo unspecified), for which the Kd in data set [1] was found to be 937 nM. The compound also came in with an IC50 against SOS1-KRAS [2] of 1190 nM.

`COc1cc2nc(C)nc(N[C@H](C)c3cccc(N)c3)c2cc1OC`: the Kd in [1] was determined as 123 nM. Moreover, on SOS1-KRAS [2], half-maximal inhibition (IC50) was put at 355 nM. Besides, the efflux ratio at 10 µM in data set [4] is 1.3.

As for `COc1cc2nc(C)nc(N[C@H](C)c3ccccc3)c2cc1OC`, in [1], the Kd came to 469 nM. In addition, the values for the IC50 (on SOS1-KRAS [2]; in [3]) were 453 nM and 2800 nM, respectively. Besides, the efflux ratio at 10 µM in data set [4] worked out at 0.6.

In the case of `COc1cc2nc(C)nc(N[C@H](C)c3cccc(S(N)(=O)=O)c3)c2cc1OC`, the Kd in data set [1] is 16 nM. Further, the IC50 on SOS1-KRAS [2] is 56 nM; in data set [3], above 20000 nM. Moreover, in data set [4], the efflux ratio at 10 µM was found to be 50.

With `COc1ccc2nc(C)nc(N[C@H](C)c3cc(N)cc(C(F)(F)F)c3)c2c1`, in [1], the Kd stood at 24 nM. This compound returned an IC50 on SOS1-KRAS [2] of 33 nM.

As for `Cc1nc(N[C@H](C)c2cc(N)cc(C(F)(F)F)c2)c2cc(Cl)ccc2n1`, in data set [1], the Kd was 1490 nM. This compound also displayed an IC50 against SOS1-KRAS [2] of 3830 nM.
